Source: article PMC8618442, “Solubility of Cinnarizine in (Transcutol + Water) Mixtures: Determination, Hansen Solubility Parameters, Correlation, and Thermodynamics” (Molecules, 2021)
In brackets after ≈: the same amount, converted by molar mass. Where two headings read alike, the source gives them in different places.

Key:
[1] = design: method as in PMID 25478230; conditions: cited from earlier work
[2] = design: method as in doi:10.1021/acs.jced.5b00075; conditions: cited from earlier work
[3] = Apparent thermodynamic analysis of CNZ dissolution (van't Hoff and Gibbs equations); format: physicochemical
Description: At the mean harmonic temperature (Thm), all apparent thermodynamic parameters were examined. The Thm was calculated using the usual formula [27]. […] The van’t Hoff and Gibbs equations were used to conduct this analysis.

[4] = Shake-flask equilibrium solubility of CNZ in {TP + water} mixtures and neat solvents (HPLC at 253 nm); format: physicochemical; conditions: 0.1 MPa
Description: Using a Digital Analytical Balance (Mettler Toledo, Greifensee, Switzerland) with a sensitivity of 0.10 mg, all {TP (1) + water (2)} combinations were created on a mass basis. The mass fraction of TP used to make various {TP (1) + water (2)} compositions ranged from 0.10–0.90. Three replicates of each {TP (1) + water (2)} composition were made.
Three repetitions of each experiment were carried out. Inside the Biological Shaker (Julabo, PA, USA), the acquired samples were saturated for three days to achieve equilibrium. After reaching equilibrium, the saturated samples were withdrawn from the shaker and centrifuged at 5000 rpm.

[5] = cited from earlier work
[6] = TP + water, w1 = 0.1, Thm = 303.0 K
[7] = TP + water, w1 = 0.2, Thm = 303.0 K
[8] = TP + water, w1 = 0.3, Thm = 303.0 K
[9] = TP + water, w1 = 0.4, Thm = 303.0 K
[10] = TP + water, w1 = 0.5, Thm = 303.0 K
[11] = TP + water, w1 = 0.6, Thm = 303.0 K
[12] = TP + water, w1 = 0.7, Thm = 303.0 K
[13] = TP + water, w1 = 0.8, Thm = 303.0 K
[14] = TP + water, w1 = 0.9, Thm = 303.0 K
[15] = w1 = 0.0 (neat water), Thm = 303.0 K
[16] = w1 = 1.0 (neat TP), Thm = 303.0 K

C(=C\c1ccccc1)/CN1CCN(C(c2ccccc2)c2ccccc2)CC1 [CNZ, 1-benzhydryl-4-[(E)-3-phenylprop-2-enyl]piperazine]
Solubility in aqueous buffer ([1]; pH = 2.0, 310.2 K): 290 µg/mL (≈ 787 µM) | Solubility in aqueous buffer ([1]; pH = 5.0, 310.2 K): 17 µg/mL (≈ 46.1 µM) | Solubility in aqueous buffer ([1]; pH = 6.5, 310.2 K): 2 µg/mL (≈ 5.43 µM) | Mole fraction solubility in water ([2]; 298.3 K): 6.63 × 10^−8 mole fraction | Mole fraction solubility in water ([2]; 303.0 K): 7.71 × 10^−8 mole fraction | Mole fraction solubility in water ([2]; 307.8 K): 9.35 × 10^−8 mole fraction | Apparent standard Gibbs energy (ΔsolnG°) [3, 6]: 9.039 kcal/mol | Apparent standard enthalpy (ΔsolnH°) [3, 6]: 10.41 kcal/mol | Apparent standard entropy (ΔsolnS°) [3, 6]: 18.92 J mol^−1 K^−1 | Apparent standard Gibbs energy (ΔsolnG°) [3, 7]: 8.229 kcal/mol | Apparent standard enthalpy (ΔsolnH°) [3, 7]: 9.964 kcal/mol | Apparent standard entropy (ΔsolnS°) [3, 7]: 23.94 J mol^−1 K^−1 | Apparent standard Gibbs energy (ΔsolnG°) [3, 8]: 7.433 kcal/mol | Apparent standard enthalpy (ΔsolnH°) [3, 8]: 8.662 kcal/mol | Apparent standard entropy (ΔsolnS°) [3, 8]: 16.96 J mol^−1 K^−1 | Apparent standard Gibbs energy (ΔsolnG°) [3, 9]: 6.606 kcal/mol | Apparent standard enthalpy (ΔsolnH°) [3, 9]: 7.596 kcal/mol | Apparent standard entropy (ΔsolnS°) [3, 9]: 13.68 J mol^−1 K^−1 | Apparent standard Gibbs energy (ΔsolnG°) [3, 10]: 5.827 kcal/mol | Apparent standard enthalpy (ΔsolnH°) [3, 10]: 6.879 kcal/mol | Apparent standard entropy (ΔsolnS°) [3, 10]: 14.50 J mol^−1 K^−1 | Apparent standard Gibbs energy (ΔsolnG°) [3, 11]: 5.014 kcal/mol | Apparent standard enthalpy (ΔsolnH°) [3, 11]: 5.853 kcal/mol | Apparent standard entropy (ΔsolnS°) [3, 11]: 11.57 J mol^−1 K^−1 | Apparent standard Gibbs energy (ΔsolnG°) [3, 12]: 4.209 kcal/mol | Apparent standard enthalpy (ΔsolnH°) [3, 12]: 5.21 kcal/mol | Apparent standard entropy (ΔsolnS°) [3, 12]: 13.82 J mol^−1 K^−1 | Apparent standard Gibbs energy (ΔsolnG°) [3, 13]: 3.401 kcal/mol | Apparent standard enthalpy (ΔsolnH°) [3, 13]: 4.085 kcal/mol | Apparent standard entropy (ΔsolnS°) [3, 13]: 9.464 J mol^−1 K^−1 | Apparent standard Gibbs energy (ΔsolnG°) [3, 14]: 2.588 kcal/mol | Apparent standard enthalpy (ΔsolnH°) [3, 14]: 3.365 kcal/mol | Apparent standard entropy (ΔsolnS°) [3, 14]: 10.72 J mol^−1 K^−1 | Apparent standard Gibbs energy (ΔsolnG°) [3, 15]: 9.876 kcal/mol | Apparent standard enthalpy (ΔsolnH°) [3, 15]: 11.39 kcal/mol | Apparent standard Gibbs energy (ΔsolnG°) [3, 16]: 1.791 kcal/mol | Apparent standard enthalpy (ΔsolnH°) [3, 16]: 2.323 kcal/mol | Apparent standard entropy (ΔsolnS°) [3, 16]: 7.346 J mol^−1 K^−1 | Solubility (xe) in mole fraction ([4]; TP + water, w1 = 0.1, T = 293.2 K): 1.66 × 10^−7 mole fraction | Solubility (xe) in mole fraction ([4]; TP + water, w1 = 0.1, T = 298.2 K): 2.30 × 10^−7 mole fraction | Solubility (xe) in mole fraction ([4]; TP + water, w1 = 0.1, T = 303.2 K): 3.16 × 10^−7 mole fraction | Solubility (xe) in mole fraction ([4]; TP + water, w1 = 0.1, T = 308.2 K): 3.91 × 10^−7 mole fraction | Solubility (xe) in mole fraction ([4]; TP + water, w1 = 0.1, T = 313.2 K): 5.30 × 10^−7 mole fraction | Solubility (xe) in mole fraction ([4]; TP + water, w1 = 0.2, T = 293.2 K): 6.50 × 10^−7 mole fraction | Solubility (xe) in mole fraction ([4]; TP + water, w1 = 0.2, T = 298.2 K): 8.87 × 10^−7 mole fraction | Solubility (xe) in mole fraction ([4]; TP + water, w1 = 0.2, T = 303.2 K): 1.23 × 10^−6 mole fraction | Solubility (xe) in mole fraction ([4]; TP + water, w1 = 0.2, T = 308.2 K): 1.51 × 10^−6 mole fraction | Solubility (xe) in mole fraction ([4]; TP + water, w1 = 0.2, T = 313.2 K): 1.95 × 10^−6 mole fraction | Solubility (xe) in mole fraction ([4]; TP + water, w1 = 0.3, T = 293.2 K): 2.64 × 10^−6 mole fraction | Solubility (xe) in mole fraction ([4]; TP + water, w1 = 0.3, T = 298.2 K): 3.50 × 10^−6 mole fraction | Solubility (xe) in mole fraction ([4]; TP + water, w1 = 0.3, T = 303.2 K): 4.49 × 10^−6 mole fraction | Solubility (xe) in mole fraction ([4]; TP + water, w1 = 0.3, T = 308.2 K): 5.35 × 10^−6 mole fraction | Solubility (xe) in mole fraction ([4]; TP + water, w1 = 0.3, T = 313.2 K): 7.00 × 10^−6 mole fraction | Solubility (xe) in mole fraction ([4]; TP + water, w1 = 0.4, T = 293.2 K): 1.12 × 10^−5 mole fraction | Solubility (xe) in mole fraction ([4]; TP + water, w1 = 0.4, T = 298.2 K): 1.42 × 10^−5 mole fraction | Solubility (xe) in mole fraction ([4]; TP + water, w1 = 0.4, T = 303.2 K): 1.72 × 10^−5 mole fraction | Solubility (xe) in mole fraction ([4]; TP + water, w1 = 0.4, T = 308.2 K): 2.09 × 10^−5 mole fraction | Solubility (xe) in mole fraction ([4]; TP + water, w1 = 0.4, T = 313.2 K): 2.62 × 10^−5 mole fraction | Solubility (xe) in mole fraction ([4]; TP + water, w1 = 0.5, T = 293.2 K): 4.24 × 10^−5 mole fraction | Solubility (xe) in mole fraction ([4]; TP + water, w1 = 0.5, T = 298.2 K): 5.26 × 10^−5 mole fraction | Solubility (xe) in mole fraction ([4]; TP + water, w1 = 0.5, T = 303.2 K): 6.34 × 10^−5 mole fraction | Solubility (xe) in mole fraction ([4]; TP + water, w1 = 0.5, T = 308.2 K): 7.33 × 10^−5 mole fraction | Solubility (xe) in mole fraction ([4]; TP + water, w1 = 0.5, T = 313.2 K): 9.22 × 10^−5 mole fraction | Solubility (xe) in mole fraction ([4]; TP + water, w1 = 0.6, T = 293.2 K): 1.73 × 10^−4 mole fraction | Solubility (xe) in mole fraction ([4]; TP + water, w1 = 0.6, T = 298.2 K): 2.10 × 10^−4 mole fraction | Solubility (xe) in mole fraction ([4]; TP + water, w1 = 0.6, T = 303.2 K): 2.44 × 10^−4 mole fraction | Solubility (xe) in mole fraction ([4]; TP + water, w1 = 0.6, T = 308.2 K): 2.77 × 10^−4 mole fraction | Solubility (xe) in mole fraction ([4]; TP + water, w1 = 0.6, T = 313.2 K): 3.36 × 10^−4 mole fraction | Solubility (xe) in mole fraction ([4]; TP + water, w1 = 0.7, T = 293.2 K): 6.89 × 10^−4 mole fraction | Solubility (xe) in mole fraction ([4]; TP + water, w1 = 0.7, T = 298.2 K): 8.00 × 10^−4 mole fraction | Solubility (xe) in mole fraction ([4]; TP + water, w1 = 0.7, T = 303.2 K): 9.22 × 10^−4 mole fraction | Solubility (xe) in mole fraction ([4]; TP + water, w1 = 0.7, T = 308.2 K): 1.05 × 10^−3 mole fraction | Solubility (xe) in mole fraction ([4]; TP + water, w1 = 0.7, T = 313.2 K): 1.23 × 10^−3 mole fraction | Solubility (xe) in mole fraction ([4]; TP + water, w1 = 0.8, T = 293.2 K): 2.81 × 10^−3 mole fraction | Solubility (xe) in mole fraction ([4]; TP + water, w1 = 0.8, T = 298.2 K): 3.17 × 10^−3 mole fraction | Solubility (xe) in mole fraction ([4]; TP + water, w1 = 0.8, T = 303.2 K): 3.53 × 10^−3 mole fraction | Solubility (xe) in mole fraction ([4]; TP + water, w1 = 0.8, T = 308.2 K): 3.90 × 10^−3 mole fraction | Solubility (xe) in mole fraction ([4]; TP + water, w1 = 0.8, T = 313.2 K): 4.43 × 10^−3 mole fraction | Solubility (xe) in mole fraction ([4]; TP + water, w1 = 0.9, T = 293.2 K): 1.12 × 10^−2 mole fraction | Solubility (xe) in mole fraction ([4]; TP + water, w1 = 0.9, T = 298.2 K): 1.25 × 10^−2 mole fraction | Solubility (xe) in mole fraction ([4]; TP + water, w1 = 0.9, T = 303.2 K): 1.38 × 10^−2 mole fraction | Solubility (xe) in mole fraction ([4]; TP + water, w1 = 0.9, T = 308.2 K): 1.48 × 10^−2 mole fraction | Solubility (xe) in mole fraction ([4]; TP + water, w1 = 0.9, T = 313.2 K): 1.62 × 10^−2 mole fraction | Solubility (xe) in mole fraction ([4]; w1 (TP mass fraction) = 0.0 (neat water), T = 293.2 K): 3.91 × 10^−8 mole fraction | Solubility (xe) in mole fraction ([4]; w1 = 0.0 (neat water), T = 298.2 K): 5.67 × 10^−8 mole fraction | Solubility (xe) in mole fraction ([4]; w1 = 0.0 (neat water), T = 303.2 K): 7.82 × 10^−8 mole fraction | Solubility (xe) in mole fraction ([4]; w1 = 0.0 (neat water), T = 308.2 K): 9.78 × 10^−8 mole fraction | Solubility (xe) in mole fraction ([4]; w1 = 0.0 (neat water), T = 313.2 K): 1.42 × 10^−7 mole fraction | Solubility (xe) in mole fraction ([4]; w1 = 1.0 (neat TP), T = 293.2 K): 4.52 × 10^−2 mole fraction | Solubility (xe) in mole fraction ([4]; w1 = 1.0 (neat TP), T = 298.2 K): 4.78 × 10^−2 mole fraction | Solubility (xe) in mole fraction ([4]; w1 = 1.0 (neat TP), T = 303.2 K): 5.08 × 10^−2 mole fraction | Solubility (xe) in mole fraction ([4]; w1 = 1.0 (neat TP), T = 308.2 K): 5.44 × 10^−2 mole fraction | Solubility (xe) in mole fraction ([4]; w1 = 1.0 (neat TP), T = 313.2 K): 5.83 × 10^−2 mole fraction | Solubility in water [5]: practically insoluble in water
